# Assay results reported in patent publication EP0643712B1, “SPIRO-OXETANES, PROCESS FOR PREPARING THE SAME AND MEDICAMENTS” (BOEHRINGER MANNHEIM GMBH, priority 1992, dated 1993).
# Assays:
# [1] = tested on: humanen Thrombozyten; test: Inhibition of collagen-induced arachidonic acid (3H-AA) release from platelets; type: cell-based; conditions: Homo sapiens, Platelet, read-out: AA in % (Hemmung der Collagen induzierten Arachidonsäurefreisetzung)
# Description: Als weiterer Indikator einer PLA2-Inhibition gilt eine Hemmung der AA-Freisetzung aus Thrombozyten. Zu diesem Zweck werden die Thrombozyten mit ^3H-AA inkubiert. Diese zugegebene radioaktive Arachidonsäure baut sich in Membranphospholipide ein. Anschließend wird die thrombozytäre PLA2 über den Collagenrezeptor aktiviert und ^3H-AA so aus Phospholipen wieder ins Medium freigesetzt, wo sie quantifiziert werden kann.
# [2] = target: T1, humane rekombinante Typ II PLA2 (Homo sapiens, UniProt P14555); test: In-vitro inhibition of PLA2 enzyme activity; type: biochemical; conditions: for inhibition at 1 µg/mL / inhibition at 10 µg/mL / inhibition at 100 µg/mL: read-out: PLA2 in % (Hemmung der Enzymaktivität); for PLA2 in % (Hemmung der Enzymaktivität) / inhibition at 100 µg/mL: 100 µg/ml
# T1 sequence (P14555 21-144): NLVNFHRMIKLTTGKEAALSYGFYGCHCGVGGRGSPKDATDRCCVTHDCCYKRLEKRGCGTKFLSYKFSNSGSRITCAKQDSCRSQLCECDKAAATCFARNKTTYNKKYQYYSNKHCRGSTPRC
# Description: Als typischer Vertreter einer PLA2 wurde die humane rekombinante Typ-II-PLA2 (= synoviale PLA2) zur Testung eingesetzt.
# Die Tabelle 1 enthält die prozentuale in-vitro Hemmung dieses Enzyms durch die Verbindung des Beispiels 1, einen Spiro-Oxetan-Vertreter. Das Enzym wird dosisabhängig bis zu 93 % inhibiert.
Structure (SMILES),inhibition at 1 µg/mL [1],inhibition at 10 µg/mL [1],inhibition at 100 µg/mL [1],inhibition at 1 µg/mL [2],inhibition at 10 µg/mL [2],PLA2 in % (Hemmung der Enzymaktivität) [2],inhibition at 100 µg/mL [2]
COc1ccc2c(c1)c(CC(=O)O)c(C)n2C(=O)c1ccc(Cl)cc1 [Indomethacin],6%,18%,23%,0%,10%,52%,52%
"O=C1C=CC2(C=C1)CC1(CCC(=O)O1)O2 (centres unmarked) [Bsp. 1, 1,6-Dioxadispiro[4.1.5.1]trideca-8,11-dien-2,10-dion]",42%,86%,100%,11%,37%,93%,≤ 93%
